ChEMBL document CHEMBL1201862, “PubChem BioAssay data set” (2004)
Active and inactive are the calls of the source.

Columns and labels:
Cytochrome P450 2D6 = Cytochrome P450 2D6 (Homo sapiens, UniProt P10635);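 also: CYP2D6 member of a cytochrome P450 panel assay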
[1] = inhibitors of intracellular T. cruzi replication, confirmation, NIH3T3 host cells, beta-gal luminescence (AID 2044); assay type: functional, cell-based;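 also: intracellular parasites grown in NIH/3T3 mouse fibroblasts as host cells; luminescent beta-galactosidase reporter signal from transgenic T. cruzi replicating inside host cells; inhibitors lower the luminescence signal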
Streptococcus = experiment: Group A Streptococcus viability loss, dose response, counter-screen for streptokinase expression inhibitor project, luminescence, BacTiterGlo (AID 1915); assay type: functional, organism-based;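 also: potency for reduction of bacterial viability or growth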
Streptokinase A = target: T1, Streptokinase A (Streptococcus pyogenes serotype M1, UniProt P10520); experiment: S. pyogenes streptokinase expression inhibitors, potency, dose response, plasminogen activation absorbance, OD405 (AID 1914); assay type: functional, Streptococcus pyogenes M1 GAS;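 also: secreted streptokinase activity via plasminogen activation per viability signal from cell pellet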
T1 sequence (P10520 whole entry): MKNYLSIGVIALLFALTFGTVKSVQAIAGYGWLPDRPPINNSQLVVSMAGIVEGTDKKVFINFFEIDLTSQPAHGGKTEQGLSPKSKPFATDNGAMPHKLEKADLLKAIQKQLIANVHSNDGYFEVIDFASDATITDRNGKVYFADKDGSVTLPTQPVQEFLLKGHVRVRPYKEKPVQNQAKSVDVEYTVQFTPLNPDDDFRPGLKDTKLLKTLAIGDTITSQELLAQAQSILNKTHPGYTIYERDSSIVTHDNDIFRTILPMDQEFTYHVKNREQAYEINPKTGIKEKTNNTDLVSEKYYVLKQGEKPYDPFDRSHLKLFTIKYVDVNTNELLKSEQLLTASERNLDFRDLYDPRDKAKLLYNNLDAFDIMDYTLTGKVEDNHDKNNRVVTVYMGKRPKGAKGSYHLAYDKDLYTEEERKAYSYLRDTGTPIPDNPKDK

[2] = cytotoxicity toward NIH3T3 fibroblasts, dose response, counter-screen, cell-based, ATP luminescence, mouse fibroblasts (AID 2010); assay type: functional;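 also: cells exposed to compound for about 90 hours before reading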
[3] = tested on: Streptococcus sp. 'group A'; experiment: growth inhibition of control SK(-) GAS strain, dose response, counter-screen for streptokinase expression inhibitor project, luminescence, kanamycin, BacTiterGlo, confirmation (AID 1900); assay type: functional, organism-based
[4] = Luminescence Cell-Based Dose Retest to Confirm Inhibitors of Cancer Stem Cells. [Related pubchem assays (depositor defined):AID2717, AID2721]; assay type: functional; details: Homo sapiens
Cytochrome P450 1A2 = target: T2, Cytochrome P450 1A2 (Homo sapiens, UniProt P05177);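 also: PubChem cytochrome P450 panel assay, CYP1A2 panel member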
T2 sequence (P05177 whole entry): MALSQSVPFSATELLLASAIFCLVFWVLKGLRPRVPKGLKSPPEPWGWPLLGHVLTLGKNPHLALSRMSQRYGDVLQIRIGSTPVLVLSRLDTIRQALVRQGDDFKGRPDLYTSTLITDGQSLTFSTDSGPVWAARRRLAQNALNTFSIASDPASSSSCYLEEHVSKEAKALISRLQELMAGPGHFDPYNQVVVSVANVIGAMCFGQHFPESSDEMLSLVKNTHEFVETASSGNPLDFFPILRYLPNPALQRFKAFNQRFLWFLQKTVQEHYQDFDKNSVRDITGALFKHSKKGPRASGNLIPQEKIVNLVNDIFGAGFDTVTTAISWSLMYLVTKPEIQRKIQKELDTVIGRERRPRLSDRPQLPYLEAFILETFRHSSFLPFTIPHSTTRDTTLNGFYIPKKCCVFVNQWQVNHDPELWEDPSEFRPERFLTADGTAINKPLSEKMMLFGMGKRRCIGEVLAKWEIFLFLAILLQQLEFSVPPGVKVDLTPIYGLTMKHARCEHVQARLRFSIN

Cytochrome P450 2C9 = Cytochrome P450 2C9 (Homo sapiens, UniProt P11712)
Sequence of Cytochrome P450 2C9 (P11712 whole entry): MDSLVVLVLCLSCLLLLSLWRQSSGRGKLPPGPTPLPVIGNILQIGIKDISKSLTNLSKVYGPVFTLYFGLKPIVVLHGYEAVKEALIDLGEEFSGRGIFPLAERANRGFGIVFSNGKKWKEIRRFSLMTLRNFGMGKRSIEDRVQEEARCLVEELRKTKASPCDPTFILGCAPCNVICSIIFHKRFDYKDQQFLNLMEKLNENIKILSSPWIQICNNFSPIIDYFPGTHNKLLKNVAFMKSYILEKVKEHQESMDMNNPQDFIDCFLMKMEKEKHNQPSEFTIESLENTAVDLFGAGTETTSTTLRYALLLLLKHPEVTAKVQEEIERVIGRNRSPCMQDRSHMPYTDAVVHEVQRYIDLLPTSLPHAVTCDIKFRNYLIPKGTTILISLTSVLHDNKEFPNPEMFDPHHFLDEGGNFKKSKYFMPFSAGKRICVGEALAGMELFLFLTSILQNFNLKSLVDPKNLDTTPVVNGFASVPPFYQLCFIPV

Cytochrome P450 3A4 = Cytochrome P450 3A4 (Homo sapiens, UniProt P08684);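 also: CYP3A4 tested as one member of a cytochrome P450 panel screen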
Sequence of Cytochrome P450 3A4 (P08684 whole entry): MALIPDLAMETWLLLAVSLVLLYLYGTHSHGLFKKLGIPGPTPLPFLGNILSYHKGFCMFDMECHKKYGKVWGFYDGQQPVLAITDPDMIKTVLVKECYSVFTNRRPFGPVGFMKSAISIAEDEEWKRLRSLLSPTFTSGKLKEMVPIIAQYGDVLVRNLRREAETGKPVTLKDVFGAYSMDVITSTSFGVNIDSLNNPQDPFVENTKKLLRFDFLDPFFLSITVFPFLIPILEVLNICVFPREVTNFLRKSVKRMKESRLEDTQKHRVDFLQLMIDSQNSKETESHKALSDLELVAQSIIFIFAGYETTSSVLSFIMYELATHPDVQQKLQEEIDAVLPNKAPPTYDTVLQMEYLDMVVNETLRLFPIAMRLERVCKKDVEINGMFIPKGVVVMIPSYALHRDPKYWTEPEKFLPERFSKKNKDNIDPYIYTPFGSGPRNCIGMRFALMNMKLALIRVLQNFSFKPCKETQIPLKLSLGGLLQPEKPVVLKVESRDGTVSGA

[5] = Luminescence Cell-Based Dose Response HTS to Identify Inhibitors of 5'UTR Stem-Loop Driven Prion Protein mRNA Translation in H4 Neuroglioblastoma Cells. [Related pubchem assays: 1827 (Project Summary), 1813 (Primary HTS)]; assay type: functional
[6] = inhibitors of SNCA 5'UTR-driven reporter translation, confirmation, H4 neuroglioma cells, luminescence (AID 1988); assay type: functional, cell-based
[7] = inhibitors of firefly luciferase expression or activity, dose response, H4 neuroglioma cells, luminescence (AID 1990); assay type: functional, cell-based
[8] = target: T3, Heat shock factor protein 1 (Mus musculus, UniProt P38532); experiment: inhibition of MG132-induced HSE-luciferase signal, confirmation, cell-based, NIH3T3, luminescence, dose retest (AID 2382); assay type: functional;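 also: NIH3T3 fibroblasts with HSF1-driven luciferase reporter stressed by proteasome inhibitor MG132; luminescence from HSF1-driven luciferase expression after 8 hours of MG132 stress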
T3 sequence (P38532 whole entry): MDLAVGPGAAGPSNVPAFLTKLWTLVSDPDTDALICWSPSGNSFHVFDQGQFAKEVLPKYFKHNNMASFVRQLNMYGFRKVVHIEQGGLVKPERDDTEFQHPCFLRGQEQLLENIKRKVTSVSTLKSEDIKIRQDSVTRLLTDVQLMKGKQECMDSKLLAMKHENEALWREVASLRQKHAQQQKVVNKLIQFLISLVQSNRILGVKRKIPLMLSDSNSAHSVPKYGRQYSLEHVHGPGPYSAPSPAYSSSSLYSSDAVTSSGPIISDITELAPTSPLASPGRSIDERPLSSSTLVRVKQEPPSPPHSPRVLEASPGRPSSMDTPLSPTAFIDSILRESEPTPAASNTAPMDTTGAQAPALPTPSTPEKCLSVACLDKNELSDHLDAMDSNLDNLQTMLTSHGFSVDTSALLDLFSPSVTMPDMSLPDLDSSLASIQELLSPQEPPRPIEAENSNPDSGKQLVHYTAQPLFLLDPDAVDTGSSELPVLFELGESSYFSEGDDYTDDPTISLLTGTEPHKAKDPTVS

INS1 = experiment: beta cell apoptosis inhibitors, cytokine rescue, dose response, luminescence, retest (AID 449756); assay type: functional, cell-based; details: Rattus norvegicus;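 also: cell death triggered by IL-1 beta plus TNF-alpha plus IFN-gamma mixture; protective hits raise ATP signal compared with cytokine alone wells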

Sequence of Cytochrome P450 2D6 (P10635 whole entry): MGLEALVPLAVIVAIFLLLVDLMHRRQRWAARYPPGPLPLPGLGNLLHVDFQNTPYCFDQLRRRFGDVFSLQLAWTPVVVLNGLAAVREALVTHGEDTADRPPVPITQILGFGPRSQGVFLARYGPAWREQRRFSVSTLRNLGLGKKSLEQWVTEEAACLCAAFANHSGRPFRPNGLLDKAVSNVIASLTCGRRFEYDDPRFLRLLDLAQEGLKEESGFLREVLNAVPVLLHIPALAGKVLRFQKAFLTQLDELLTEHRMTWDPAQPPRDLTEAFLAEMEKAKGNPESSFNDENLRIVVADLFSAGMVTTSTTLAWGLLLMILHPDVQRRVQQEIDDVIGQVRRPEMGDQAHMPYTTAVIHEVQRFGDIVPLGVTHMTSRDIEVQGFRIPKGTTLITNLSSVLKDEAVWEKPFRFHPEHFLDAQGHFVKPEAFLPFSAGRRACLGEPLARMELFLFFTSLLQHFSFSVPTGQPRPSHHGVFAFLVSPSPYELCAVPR

Clc1ccc(Sc2ccc(/C=N/n3cnnc3)o2)cc1
AC50 (Cytochrome P450 2D6): 15.8 µM (inconclusive)

c1ccc(N(c2ccccc2)c2nc(N3CCCC3)nc(-n3ccnc3)n2)cc1
EC50 [1]: 1.84 µM (active)
EC50 (Streptococcus): 5.49 µM (active)
EC50 (Streptokinase A): > 150 µM (not active)
EC50 [2]: > 60 µM (not active)
EC50 [3]: 5.55 µM (active)
AC50 [4]: 5.16 µM (active)

COc1ccc(-n2c(=O)c(-c3cccs3)nc3cnc(N4CCOCC4)nc32)cc1
AC50 (Cytochrome P450 1A2): 12.6 µM (inconclusive)
AC50 (Cytochrome P450 2C9): 20 µM (inconclusive)
AC50 (Cytochrome P450 3A4): 20 µM (inconclusive)

COc1ccc(C(O)c2nccn2Cc2ccccc2)cc1 (centres undefined)
AC50 (Cytochrome P450 1A2): 6.31 µM (inconclusive)

O=C(O)CN1CCN(Cc2ccccc2)C1=O
AC50 (Cytochrome P450 2C9): 11.2 µM (inconclusive)
AC50 (Cytochrome P450 2D6): 15.8 µM (inconclusive)

OCCCn1c(CCNc2nc(-c3ccc(Cl)cc3)cs2)nc2cc(C(F)(F)F)ccc21
AC50 [4]: 23.9 µM (active)

COc1cccc(OC)c1C(=O)NC(=S)N1CCN(c2ccc(C(F)(F)F)cc2[N+](=O)[O-])CC1
AC50 (Cytochrome P450 2D6): 20 µM (inconclusive)

C=CCn1c(CNc2ccccc2)nnc1SCC(=O)N/N=C/c1ccccc1O
EC50 [5]: > 120 µM (not active)
EC50 [6]: > 120 µM (not active)
EC50 [7]: 18.3 µM (active)

COc1ccccc1-c1nccc(NCc2cccnc2)n1
AC50 (Cytochrome P450 2D6): 20 µM (inconclusive)

O=C(CN1CCN(c2ccc(O)cc2)CC1)Nc1cc(S(=O)(=O)N2CCCC2)ccc1Cl
EC50 [8]: > 195 µM (not active)

Cc1ccc(S(=O)(=O)N2CCCCC2c2cccnc2)c(C)c1C (centres undefined)
AC50 (INS1): 57.2 µM (active)

Cc1cc(=O)oc2c(OS(C)(=O)=O)c(OS(C)(=O)=O)ccc12
AC50 (Cytochrome P450 1A2): 0.794 µM (inconclusive)

Cc1ccc(C(=O)NC(=C(Cl)Cl)S(=O)(=O)c2ccccc2)cc1
AC50 [4]: 3.29 µM (active)

COc1ccc(C(=O)NCC2(c3ccccc3)CCCC2)c(OC)c1
AC50 [4]: 1.22 µM (active)

COc1ccccc1-c1nnc(SCC(=O)N2CC(C)CC(C)C2)o1 (centres undefined)
EC50 [5]: > 120 µM (not active)
EC50 [6]: > 120 µM (not active)
EC50 [7]: > 120 µM (not active)

NC(CC(=O)Nc1ccc(F)cc1)=NO
EC50 [8]: > 195 µM (not active)

COc1ccc(S(=O)(=O)N2CCCN(CCC(=O)Nc3cccc(C(F)(F)F)c3)CC2)cc1
AC50 (Cytochrome P450 1A2): 15.8 µM (inconclusive)
AC50 (Cytochrome P450 2C9): 39.8 µM (inconclusive)
AC50 (Cytochrome P450 3A4): 39.8 µM (inconclusive)

Cc1cc(C)n2nc(-c3sccc3-n3cccc3)cc2n1
AC50 (Cytochrome P450 2D6): 35.5 µM (inconclusive)
AC50 (Cytochrome P450 3A4): 3.55 µM (inconclusive)

COc1ccccc1-c1nc(NCCNC(C)=O)c2ccccc2n1
AC50 (Cytochrome P450 1A2): 15.8 µM (inconclusive)

COc1ccc(/C=N/NC(=S)Nc2ccccc2[N+](=O)[O-])cc1O
AC50 [4]: 4.87 µM (active)

c1nc(NCCc2c[nH]cn2)c2nc[nH]c2n1
AC50 (Cytochrome P450 1A2): 5.01 µM (inconclusive)
AC50 (Cytochrome P450 3A4): 3.98 µM (inconclusive)

CN(C)C(=O)c1ccc(NC(=O)c2cccnc2)cc1
AC50 (INS1): 6.14 µM (active)

C/C(=N\NC(=O)c1ccc(C)cc1)c1c(C)nn(-c2ccccc2)c1O
EC50 (Streptococcus): 14.7 µM (active)
AC50 (INS1): 3.15 µM (active)
EC50 (Streptokinase A): > 150 µM (not active)
EC50 [3]: 3.96 µM (active)

CC(=O)NCCNc1ccnc(-c2ccccc2C(F)(F)F)n1
AC50 (Cytochrome P450 1A2): 15.8 µM (inconclusive)
AC50 (Cytochrome P450 3A4): 15.8 µM (inconclusive)
